Assay results: US20190365719A1, “COMBINATION TREATMENTS OF HSP90 INHIBITORS FOR ENHANCING TUMOR IMMUNOGENICITY AND METHODS OF USE THEREOF” (Massachusetts Institute of Technology, priority 2018, published 2019)

Key:
MC38 tumors = assay: Subcutaneous MC38 tumors in immunocompromised NOD-SCID mice; assay type: in vivo; details: 0.5 mg/kg/day in drinking water
[1] = tested on: Ctrl or B2m KO MC38 tumors; assay: Ctrl or B2m KO MC38 tumors in mice; assay type: in vivo; details: 0.5 mg/kg/day
Source text: FIGS. 6A-B are graphs showing anti-tumor activity of low-dose HSP90i is dependent on functional MHC Class I expression. Ctrl or B2m KO cells were generated by CRISPR-Cas9 mediated gene editing, and B2m KO cells were confirmed to no longer express MHC-I on the cell surface. FIG. 6A is a line graph showing relative number of viable Ctrl and B2m KO cells measured by standard dye reduction assay following 2-day exposure to increasing concentrations of HSP90i; FIG. 6B is a line graph showing size in mm^3 of Ctrl or B2m KO MC38 tumors in mice treated with vehicle (Veh, solid lines) or 0.5 mg/kg/day HSP90i (dotted lines) over 25 days post implantation.
For CRISPR/Cas9-mediated disruption of B2m, pSpCas9-P2A-GFP plasmid (Addgene #48138) was modified with a control sgRNA sequence ([…]) or an sgRNA targeting B2m ([…]). Log phase MC38 cells were transfected with Ctrl or B2m plasmids using Lipofectamine 2000 (Invitrogen) according to manufacturer's instructions. 24 hours later, single GFP positive cells were sorted into 96-well plates to isolate individual MC38 clones with the desired modification. After 2 weeks, isolated clones were tested by western blot to confirm loss of B2m expression. Ctrl and B2m clones were then passaged through syngeneic mice (C57/B16) to increase the uniformity of tumor establishment and progression in subsequent experiments.

SMILES: COc1cccc(-c2cc(F)ccc2[C@H]2Cc3nc(N)nc(C)c3C(=O)N2)n1 [NVP-HSP990]
- effect on tumor growth (MC38 tumors): no effect on tumor growth
- growth kinetics of B2m KO MC38 tumors, treated versus vehicle [1]: nearly identical growth kinetics
- growth of Ctrl MC38 tumors [1]: reduced the growth of Ctrl tumors
